Laboratory results taken from publication PMC4950319, “Kinetic and structural characterization of amyloid‐β peptide hydrolysis by human angiotensin‐1‐converting enzyme” (The Febs Journal, 2016).
“And” between values parts separate entries of the source, which are not always exact repeats. Equal entries are not always repeated. “Also recorded” adds a separate entry of the source.

Tests used:
N‐sACE = target: T1, N‐sACE (Homo sapiens, UniProt P12821, H988K/H992K); test: Aβ(4–10)Y hydrolysis by N‐sACE, fluorogenic assay; assay type: biochemical; settings: fluorescence λex 320 nm, λem 420 nm, Hepes pH 7.5 buffer as for Aβ(4–10)Q, 5 min time point, enzyme 0.113 pmol, n = 3
T1 construct: Both constructs have the complete signal, transmembrane and stalk region corresponding to full‐length sACE; made in house; host or cells: CHO cells; purified from cell lysate
T1 sequence (P12821 30-1306 H988K/H992K): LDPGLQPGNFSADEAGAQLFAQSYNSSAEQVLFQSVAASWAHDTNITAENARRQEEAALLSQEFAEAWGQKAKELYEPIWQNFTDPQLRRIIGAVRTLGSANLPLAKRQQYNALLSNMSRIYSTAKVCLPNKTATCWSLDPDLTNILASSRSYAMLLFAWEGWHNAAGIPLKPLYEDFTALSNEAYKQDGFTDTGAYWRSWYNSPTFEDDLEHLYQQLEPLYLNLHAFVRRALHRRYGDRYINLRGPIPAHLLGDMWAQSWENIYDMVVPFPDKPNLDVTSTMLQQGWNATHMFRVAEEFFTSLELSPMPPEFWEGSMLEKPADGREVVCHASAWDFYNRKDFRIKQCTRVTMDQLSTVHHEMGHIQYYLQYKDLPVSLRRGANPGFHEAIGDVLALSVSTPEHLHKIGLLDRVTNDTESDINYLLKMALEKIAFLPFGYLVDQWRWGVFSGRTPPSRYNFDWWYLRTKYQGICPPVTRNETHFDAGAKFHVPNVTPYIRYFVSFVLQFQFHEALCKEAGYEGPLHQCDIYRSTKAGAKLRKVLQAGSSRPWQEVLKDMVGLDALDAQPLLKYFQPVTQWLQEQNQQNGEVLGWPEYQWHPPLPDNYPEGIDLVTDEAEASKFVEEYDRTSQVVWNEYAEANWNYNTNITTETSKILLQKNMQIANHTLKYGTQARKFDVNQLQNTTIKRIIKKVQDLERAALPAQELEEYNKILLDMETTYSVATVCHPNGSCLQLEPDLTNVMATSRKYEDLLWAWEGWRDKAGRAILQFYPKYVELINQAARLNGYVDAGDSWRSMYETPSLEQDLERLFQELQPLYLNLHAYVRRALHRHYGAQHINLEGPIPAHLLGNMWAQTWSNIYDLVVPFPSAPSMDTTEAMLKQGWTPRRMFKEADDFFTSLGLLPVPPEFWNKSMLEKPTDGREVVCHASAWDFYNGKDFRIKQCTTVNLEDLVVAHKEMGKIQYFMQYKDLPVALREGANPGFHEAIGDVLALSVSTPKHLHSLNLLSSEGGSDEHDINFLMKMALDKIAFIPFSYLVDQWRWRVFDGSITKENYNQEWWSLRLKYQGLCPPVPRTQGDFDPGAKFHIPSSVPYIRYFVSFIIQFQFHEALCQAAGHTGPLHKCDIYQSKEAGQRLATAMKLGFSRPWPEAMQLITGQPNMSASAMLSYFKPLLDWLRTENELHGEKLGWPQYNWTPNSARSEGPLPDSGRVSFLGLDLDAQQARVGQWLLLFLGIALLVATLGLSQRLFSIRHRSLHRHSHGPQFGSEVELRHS
Description: (§1) Fluorogenic substrates designed around the established N‐terminal Asp7‐Ser8 cleavage site of the full‐length Aβ(1–42) were used to develop a higher throughput assay. There are two variations of the short fluorogenic peptides: Aβ(4–10)Q (Abz‐FRHDSG(Q)‐EDDnp) which has an N‐terminal Abz donor and a C‐terminal EDDnp quencher group attached to an additional Gln residue. The second peptide, Aβ(4–10)Y (Abz‐FRHDSG‐(NT)) has a different quencher molecule, NT, which substitutes for the naturally occurring Tyr residue.
(§2) An alternative fluorogenic peptide, Abz‐FRHDSG‐(NT) (BIOPEP™ South Africa) was assayed, with 100 μL enzyme and 100 μL substrate (at a final enzyme concentration within 10% hydrolysis of total substrate; see Table 3) as above, in 96‐well plates. The samples were read at the 5 min time point on a Cary Eclipse spectrofluorimeter (Varian Inc.) at λex = 320 nm and λem = 420 nm. Kinetic constants, inner filter effect and standard curves were calculated as above.
(§3) Statistical analysis of the data was determined by Student's t test. Differences with P < 0.05 were considered statistically significant. Fractional error was calculated for the k cat/K m ratio with the following equation: ΔZ=ZΔa/a^2+Δb/b^2 where Z represents the mean k cat/K m and ΔZ represents the fractional error. The Δa represents the SEM of the mean k cat (a). Similarly, Δb represents the SEM of the mean K m (b).

[1] = target: T2, Ndom (soluble form of the N‐domain of sACE) (Homo sapiens, UniProt P12821); test: Aβ(4–10)Y hydrolysis by Ndom, fluorogenic assay; assay type: biochemical
T2 construct: made in house; host or cells: CHO cells
T2 sequence (P12821 30-658): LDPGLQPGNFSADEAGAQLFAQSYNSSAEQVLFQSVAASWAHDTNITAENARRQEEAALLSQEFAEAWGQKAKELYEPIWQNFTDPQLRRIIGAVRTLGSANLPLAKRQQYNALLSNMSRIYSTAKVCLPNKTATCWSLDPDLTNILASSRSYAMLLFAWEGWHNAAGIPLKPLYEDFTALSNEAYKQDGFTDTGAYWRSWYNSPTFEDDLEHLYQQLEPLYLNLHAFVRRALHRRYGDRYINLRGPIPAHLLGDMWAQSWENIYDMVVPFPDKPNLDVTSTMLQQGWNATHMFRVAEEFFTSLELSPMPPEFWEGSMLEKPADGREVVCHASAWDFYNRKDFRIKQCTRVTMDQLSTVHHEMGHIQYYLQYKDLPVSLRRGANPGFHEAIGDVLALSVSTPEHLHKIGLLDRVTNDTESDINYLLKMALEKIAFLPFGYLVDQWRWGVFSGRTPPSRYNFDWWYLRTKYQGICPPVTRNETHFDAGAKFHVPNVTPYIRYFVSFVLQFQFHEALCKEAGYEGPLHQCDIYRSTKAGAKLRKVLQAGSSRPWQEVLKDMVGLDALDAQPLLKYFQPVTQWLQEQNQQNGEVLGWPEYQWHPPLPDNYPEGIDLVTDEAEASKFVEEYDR
Description: as §1, §2, §3

C‐sACE = target: T3, C‐sACE (Homo sapiens, UniProt P12821, H390K/H394K); test: Aβ(4–10)Y hydrolysis by C‐sACE, fluorogenic assay; assay type: biochemical
T3 construct: Both constructs have the complete signal, transmembrane and stalk region corresponding to full‐length sACE; made in house; host or cells: CHO cells; purified from cell lysate
T3 sequence (P12821 30-1306 H390K/H394K): as the sequence (P12821 30-1306 H988K/H992K) above, with H361K, H365K, K959H, K963H counted along it
Description: as §1, §2, §3

ACE variants = test: Cleavage‐site analysis by MALDI‐TOF MS, kinetic assay conditions; assay type: biochemical, human; settings: MALDI‐TOF MS of products within kinetic assay conditions; Aβ(1–16): all ACE variants except Cdom; Aβ(4–10) peptides: Cdom and CC‐sACE not analysed
Protocol: The mass spectrometry was analysed at the Centre for Proteomic and Genomic Research (Cape Town, South Africa). Briefly, the collected peptides were spotted onto a 10 mg·mL^−1 α‐cyano‐4‐hydroxycinnamic acid matrix (Fluka, USA) in 80% ACN, 0.2% TFA for a final concentration of 5 mg·mL^−1 matrix in 40% ACN, 0.1% TFA, 10 mM NH4H2PO4. Mass spectrometry was performed with a 4800 MALDI‐TOF/TOF (Applied Biosytems) with all spectra recorded in positive reflector mode. Spectra were generated with 400 laser shots/spectrum at a laser intensity of 3800 (arbitrary units) with a grid voltage of 16 kV.

sACE [2] = target: T4, sACE (Homo sapiens, UniProt P12821); test: Aβ(4–10)Y hydrolysis by sACE, fluorogenic assay; assay type: biochemical
T4 construct: made in house; host or cells: CHO cells; purified from cell lysate
T4 sequence (P12821 30-1306): as the sequence (P12821 30-1306 H988K/H992K) above, with K959H, K963H counted along it
Description: as §1, §2, §3

sACE [3] = target: T4, sACE; test: Interdomain cooperativity in hydrolysis of Aβ substrates; assay type: biochemical
Protocol: Mixtures were separated on a Poroshell 120 EC‐18 column with a 2.7 μm pore size. The reaction consists of 25 μL substrate incubated with 25 μL enzyme for 15 min at 37 °C and was stopped with the addition of 10 μL of 0.25% trifluoroacetic acid (TFA). The total reaction (60 μL) was cleared of contaminants on a spin column (GHP Nanosep® MF Centrifugal Device 0.45 μm pore size) and run on the HPLC. Kinetic parameters were determined through the fitting of initial rates to the Michaelis–Menten equation with […] PRISM software (v 4.01, GraphPad Prism®).
The reaction was incubated for 15 min at 37 °C and stopped with the addition of 10 μL 0.25% TFA to make up a total volume of 60 μL. The reactions were performed in triplicate and 50 μL injections were analysed via HPLC (Agilent Technologies) across a gradient of 0.1% TFA and 2% ACN in water to 0.1% TFA, 95% ACN. A calibration curve was set up to convert the product peak area to picomoles product formed, through the complete hydrolysis of the substrate with the N‐domain. […] Kinetic constants were calculated using the Michaelis–Menten method using […] […]
The assay is a modified form of the continuous assay 7 where the assay is set up on ice in triplicate in a 96‐well plate. The baseline fluorescence was at time zero and then the substrate was incubated at 37 °C and fluorescence read at the 45 min time point on a Cary Eclipse spectrofluorimeter (Varian Inc.) at λex = 320 nm and λem = 420 nm. Again, kinetic constants were calculated using the Michaelis–Menten method with […] […] The detected fluorescence was converted to picamoles product formed through the slope of a calibration curve of Abz‐Gly. […]
as §2

CC‐sACE = test: Aβ(4–10)Y hydrolysis by CC‐sACE, fluorogenic assay; assay type: biochemical, human; settings: fluorescence λex 320 nm, λem 420 nm, Hepes pH 7.5 buffer as for Aβ(4–10)Q, 5 min time point, enzyme 0.071 pmol, n = 3
CC‐sACE, sequence (P12821 643-1222 limits assumed): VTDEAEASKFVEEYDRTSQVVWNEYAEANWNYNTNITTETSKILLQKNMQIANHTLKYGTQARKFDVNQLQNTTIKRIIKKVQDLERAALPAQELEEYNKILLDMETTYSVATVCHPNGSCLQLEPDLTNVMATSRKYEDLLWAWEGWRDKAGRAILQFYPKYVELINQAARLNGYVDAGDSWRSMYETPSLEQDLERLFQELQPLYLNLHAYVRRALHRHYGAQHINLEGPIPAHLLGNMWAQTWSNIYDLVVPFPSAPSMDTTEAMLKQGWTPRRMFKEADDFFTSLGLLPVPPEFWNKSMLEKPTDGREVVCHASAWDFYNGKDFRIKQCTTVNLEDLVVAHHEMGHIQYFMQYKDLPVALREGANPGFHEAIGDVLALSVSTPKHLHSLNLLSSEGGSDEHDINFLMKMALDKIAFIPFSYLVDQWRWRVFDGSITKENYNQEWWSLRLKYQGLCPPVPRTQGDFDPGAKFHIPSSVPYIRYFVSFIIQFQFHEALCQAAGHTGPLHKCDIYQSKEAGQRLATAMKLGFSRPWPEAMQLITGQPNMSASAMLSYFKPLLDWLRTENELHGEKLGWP
Description: as §1, §2, §3

[4] = mean ± fractional error of the ratio
[5] = fluorescence λex 320 nm, λem 420 nm, Hepes pH 7.5 buffer as for Aβ(4–10)Q, 5 min time point, enzyme 0.228 pmol, mean ± SEM, n = 3
[6] = fluorescence λex 320 nm, λem 420 nm, Hepes pH 7.5 buffer as for Aβ(4–10)Q, 5 min time point, enzyme 0.226 pmol, mean ± SEM, n = 3
[7] = fluorescence λex 320 nm, λem 420 nm, Hepes pH 7.5 buffer as for Aβ(4–10)Q, 5 min time point, enzyme 0.031 pmol, mean ± SEM, n = 3

“Abz‐FRHDSG‐(NT) [Aβ(4–10)Y, fluorogenic Aβ(4–10) peptide with NT quencher substituting for Tyr]” showed a K m (N‐sACE; mean ± SEM) of 8.56 ± 0.83 µM, a V max (N‐sACE; mean ± SEM) of 0.44 ± 0.01 and a k cat (N‐sACE; mean ± SEM) of 3.87 ± 0.09 s⁻¹. The “k cat/K m” value (N‐sACE; [4]) was 4.61 ± 0.46 M^−1·s^−1 × 10^5, the “catalytic efficiency by Ndom relative to Aβ(1–16)” value ([1]; […] 10^5 versus […] 10^5 M^−1·s^−1) was “half the catalytic efficiency” and the K m [1, 5] was 21.20 ± 0.31 µM. The V max [1, 5] was 4.62 ± 0.14, the k cat [1, 5] was 20.30 ± 0.62 s⁻¹ and the “k cat/K m” value ([1]; fluorescence λex 320 nm, λem 420 nm, Hepes pH 7.5 buffer as for Aβ(4–10)Q, 5 min time point, enzyme 0.228 pmol, mean ± fractional error of the ratio, n = 3) was 9.57 M^−1·s^−1 × 10^5 and 9.57 ± 0.33 M^−1·s^−1 × 10^5. For the same substance, the “C‐sACE K m, fold larger than its active N‐domain counterpart” value (C‐sACE; C‐sACE versus active N‐domain counterpart, P < 0.05) was 2 fold, the K m (C‐sACE; [6]) was 38.10 ± 0.10 µM and the V max (C‐sACE; [6]) was 1.57 ± 0.09. The k cat (C‐sACE; [6]) was 6.95 ± 1.39 s⁻¹, the “k cat/K m” value (C‐sACE; fluorescence λex 320 nm, λem 420 nm, Hepes pH 7.5 buffer as for Aβ(4–10)Q, 5 min time point, enzyme 0.226 pmol, mean ± fractional error of the ratio, n = 3) was 1.83 ± 0.18 M^−1·s^−1 × 10^5 and the “cleavage site (bond)” value (ACE variants) was “Asp7‐Ser8”. For the same substance, the K m (sACE [2]; [7]) was 12.60 ± 2.48 µM, the V max (sACE [2]; [7]) was 0.90 ± 0.18 and the k cat (sACE [2]; [7]) was 28.70 ± 5.81 s⁻¹. For the same substance, the “k cat/K m” value (sACE [2]; fluorescence λex 320 nm, λem 420 nm, Hepes pH 7.5 buffer as for Aβ(4–10)Q, 5 min time point, enzyme 0.031 pmol, mean ± fractional error of the ratio, n = 3) was 22.67 ± 6.40 M^−1·s^−1 × 10^5, the “catalytic efficiency of sACE, fold greater than Ndom” value (sACE [2]; sACE versus Ndom, P < 0.05) was 2 fold and the “interdomain cooperativity, full‐length constructs” value (sACE [3]; examination of the N‐sACE and C‐sACE constructs) was “positive domain cooperativity; also recorded: a positive form of cooperativity”. For the same substance, the “interdomain cooperativity, truncated domains taken into account” value (sACE [3]; truncated domains versus sACE) was “a negative effect on the activity of sACE”, the K m (CC‐sACE; mean ± SEM) was 20.30 ± 2.55 µM and the V max (CC‐sACE; mean ± SEM) was 0.90 ± 0.08. For the same substance, the k cat (CC‐sACE; mean ± SEM) was 12.70 ± 1.16 s⁻¹ and the “k cat/K m” value (CC‐sACE; [4]) was 6.33 ± 0.98 M^−1·s^−1 × 10^5.
